From the supplement of paper PMC10307832

Columns and labels:
Assay in all cases: relative viability (nuclei count vs DMSO), 5 days (fraction); higher = more cells survive
RU-SKI 43 + Tozasertib = compound: CC[C@@H](C)CNCC(=O)N1CCC2=C([C@@H]1COC3=CC=CC(=C3)C)C=CS2 [RU-SKI 43] + Cc1cc(Nc2cc(N3CCN(C)CC3)nc(Sc3ccc(NC(=O)C4CC4)cc3)n2)n[nH]1 [Tozasertib] (partner 0.1 µM)
Procedure, shortened: (§1)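 Lung cancer cell lines in 1536-well plates were dosed by pin tool the day after seeding, either with one drug alone or with a fixed anchor-drug dose plus five library-drug doses (not always all listed) in √10 steps. After 5 days, cells were fixed and their nuclei stained in one step (final 0.05% Triton X-100, 1% formaldehyde, 1 ug/ml Hoechst), then counted on 4× images. Relative viability is the nuclei count in treated wells divided by that in vehicle wells. Values are medians of duplicate plates.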

MK-8033 + Decitabine = compound: Cn1cc(-c2cnc3ccc4ccc(CS(=O)(=O)NCc5ccccn5)cc4c(=O)c3c2)cn1 [MK-8033] + Nc1ncn([C@H]2C[C@H](O)[C@@H](CO)O2)c(=O)n1 [Decitabine] (partner 2 µM)
Procedure, shortened: as §1

MK-8033 + Linsitinib = compound: Cn1cc(-c2cnc3ccc4ccc(CS(=O)(=O)NCc5ccccn5)cc4c(=O)c3c2)cn1 [MK-8033] + C[C@]1(O)C[C@@H](c2nc(-c3ccc4ccc(-c5ccccc5)nc4c3)c3c(N)nccn32)C1 [Linsitinib] (partner 1 µM)
Procedure, shortened: as §1

Irinotecan + OSI-027 = compound: CCc1c2c(nc3ccc(OC(=O)N4CCC(N5CCCCC5)CC4)cc13)-c1cc3c(c(=O)n1C2)COC(=O)[C@]3(O)CC [Irinotecan] + COc1cccc2cc(-c3nc([C@H]4CC[C@H](C(=O)O)CC4)n4ncnc(N)c34)[nH]c12 [OSI-027] (partner 0.5 µM)
Procedure, shortened: as §1

| Cell Line | relative viability (RU-SKI 43 + Tozasertib; first compound 0.1 µM) | relative viability (RU-SKI 43 + Tozasertib; first compound 0.3162 µM) | relative viability (RU-SKI 43 + Tozasertib; first compound 1 µM) | relative viability (RU-SKI 43 + Tozasertib; first compound 3.162 µM) | relative viability (RU-SKI 43 + Tozasertib; first compound 10 µM) | relative viability (MK-8033 + Decitabine; first compound 0.02 µM) | relative viability (MK-8033 + Decitabine; first compound 0.06325 µM) | relative viability (MK-8033 + Decitabine; first compound 0.2 µM) | relative viability (MK-8033 + Decitabine; first compound 0.6325 µM) | relative viability (MK-8033 + Decitabine; first compound 2 µM) | relative viability (MK-8033 + Linsitinib; first compound 0.02 µM) | relative viability (MK-8033 + Linsitinib; first compound 0.06325 µM) | relative viability (MK-8033 + Linsitinib; first compound 0.2 µM) | relative viability (MK-8033 + Linsitinib; first compound 0.6325 µM) | relative viability (MK-8033 + Linsitinib; first compound 2 µM) | relative viability (Irinotecan + OSI-027; first compound 0.6325 µM) | relative viability (Irinotecan + OSI-027; first compound 2 µM) | relative viability (Irinotecan + OSI-027; first compound 6.325 µM) | relative viability (Irinotecan + OSI-027; first compound 20 µM) |
| --- | --- | --- | --- | --- | --- | --- | --- | --- | --- | --- | --- | --- | --- | --- | --- | --- | --- | --- | --- |
| NCI-H441 | 0.597 | 0.542 | 0.541 | 0.736 | 0.554 | 0.237 | 0.237 | 0.231 | 0.264 | 0.238 | 0.505 | 0.401 | 0.54 | 0.551 | 0.53 | 0.371 | 0.448 | 0.281 | 0.327 |
| NCI-H1437 | 0.362 | 0.34 | 0.443 | 0.379 | 0.38 | 0.615 | 0.585 | 0.511 | 0.626 | 0.549 | 0.976 | 1.01 | 0.94 | 1.01 | 0.917 | 0.797 | 0.722 | 0.378 | 0.184 |
| HARA | 0.125 | 0.0842 | 0.118 | 0.111 | 0.108 | 0.651 | 0.508 | 0.463 | 0.559 | 0.605 | 0.779 | 0.78 | 0.893 | 1.03 | 0.897 | 0.148 | 0.186 | 0.142 | 0.0795 |
| LOU-NH91 | 0.659 | 0.646 | 0.672 | 0.702 | 0.6 | 0.792 | 0.662 | 0.789 | 0.789 | 0.813 | 0.93 | – | 0.912 | 0.89 | 0.992 | 0.688 | 0.688 | 0.386 | 0.365 |
| COR-L 105 | 0.317 | 0.252 | 0.32 | 0.339 | 0.332 | 0.659 | 0.556 | 0.619 | 0.689 | 0.691 | 0.868 | 1.04 | 0.838 | 0.902 | 0.915 | 0.773 | 0.859 | 0.565 | 0.166 |
| NCI-H838 | 0.243 | 0.242 | 0.273 | 0.258 | 0.254 | 0.458 | 0.442 | 0.476 | 0.469 | 0.445 | 0.988 | 0.98 | 0.985 | 0.98 | 0.953 | 0.508 | 0.37 | 0.368 | 0.257 |
| NCI-H1975 | 0.755 | 0.852 | 0.854 | 0.712 | 0.574 | 0.351 | 0.328 | 0.358 | 0.342 | 0.427 | 0.925 | 0.957 | 0.873 | 0.956 | 0.905 | 0.558 | 0.694 | 0.439 | 0.137 |
| SK-MES-1 | 0.9 | 1.14 | 1.04 | 0.924 | 0.754 | 0.355 | 0.362 | 0.4 | 0.407 | 0.499 | 1.06 | 0.995 | 1.04 | 1.09 | 1.09 | 0.428 | 0.538 | 0.434 | 0.15 |
| NCI-H647 | 0.262 | 0.261 | 0.227 | 0.231 | 0.262 | 0.33 | 0.362 | 0.382 | 0.372 | 0.305 | 1.17 | 0.88 | 0.994 | 1.14 | 1.04 | 0.564 | 0.634 | 0.277 | 0.183 |
| A-427 | 0.226 | 0.165 | 0.23 | 0.21 | 0.196 | 0.579 | 0.523 | 0.585 | 0.583 | 0.569 | 1.09 | 1.21 | 1.02 | 1.17 | 1.1 | – | 0.315 | 0.244 | 0.227 |
| HCC-366 | 0.098 | 0.0997 | 0.124 | 0.132 | 0.0872 | 0.327 | 0.361 | 0.331 | 0.36 | 0.366 | 0.675 | 0.565 | 0.619 | 0.587 | 0.643 | 0.144 | 0.714 | 0.0844 | 0.0682 |
